Experiment: 21-day starter chick feeding study: relative bioavailability of phosphate sources (slope ratio assay)
Settings: in vivo
From the text: (CDP) source in starter chick diets. […] Each dietary treatment was replicated six times with eleven chicks per pen during a 21-day experimental period. […] A slope ratio assay using linear regression analysis was used to determine relative bioavailabilities.

For “eggshell derived monocalcium phosphate [EDMCP]”, the “availability of the phosphate fraction to the animal vs currently available commercial products” value was “more available”.
